According to patent US7514452B2, “2-furancarboxylic acid hydrazides and pharmaceutical compositions containing the same” (Dainippon Pharmaceutical Co., Ltd, priority 2002, dated 2009):

Assays:
glucagon receptor [1] = target: glucagon receptor (Mus musculus, UniProt Q61606); experiment: Experiment for glucagon binding inhibition, mouse hepatic membrane (125I-glucagon); conditions: male ddY mouse hepatic membrane, 125I-glucagon 50 pM, 25° C. for 30 minutes; read-out: Glucagon binding inhibitory activity IC50 (nM) Mouse
Experimental: (§1) The preparation of membrane from mouse and rat livers was carried out according to the method described in Bioorg. Med. Chem. Lett. 1992, 12, 915-918 in this experiment and ^125I-glucagon binding activity was measured with these membranes as glucagon receptor's samples. Livers were removed from male SD rats (about 250 g body weight per rat) and male ddY mice (about 30 g body weight per mouse). […] The homogenate was centrifuged for 15 minutes at 30,000×g. […] The precipitaion thus obtained was used as a hepatic membrane sample. […] The mixture was incubated at 25° C. for 30 minutes. […] The filter was washed 3 times with 50 mM Tris-HCl buffer (pH 7.2), and the radioactivity of the filter was measured by a γ counter (ARC-360, Aloka Co., Ltd.). […] Each experiment was carried out in duplicate. […] The concentration at 50% inhibition of binding (IC50) was calculated using a pseudo Hill plot.

glucagon receptor [2] = target: glucagon receptor (Rattus norvegicus, UniProt P30082); experiment: Experiment for glucagon binding inhibition, rat hepatic membrane (125I-glucagon); conditions: male SD rat hepatic membrane, 125I-glucagon 50 pM, 25° C. for 30 minutes; read-out: Glucagon binding inhibitory activity IC50 (nM) Rat
Experimental: as §1

glucagon receptor (Mus musculus, UniProt Q61606), sequence (Q61606 27-485): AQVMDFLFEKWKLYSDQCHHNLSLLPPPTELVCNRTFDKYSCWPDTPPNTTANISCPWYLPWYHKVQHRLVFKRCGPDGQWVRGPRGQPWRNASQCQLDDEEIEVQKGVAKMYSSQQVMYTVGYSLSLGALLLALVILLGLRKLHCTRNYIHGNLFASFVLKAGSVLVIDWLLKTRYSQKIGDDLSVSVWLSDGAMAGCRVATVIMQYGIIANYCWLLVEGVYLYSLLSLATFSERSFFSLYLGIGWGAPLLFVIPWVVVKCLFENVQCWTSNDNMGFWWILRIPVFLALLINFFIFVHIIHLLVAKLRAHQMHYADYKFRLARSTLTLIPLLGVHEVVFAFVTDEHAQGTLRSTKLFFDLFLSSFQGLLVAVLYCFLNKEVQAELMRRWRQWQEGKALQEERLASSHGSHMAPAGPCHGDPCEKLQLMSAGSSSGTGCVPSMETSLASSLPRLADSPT
glucagon receptor (Rattus norvegicus, UniProt P30082), sequence (P30082 27-485): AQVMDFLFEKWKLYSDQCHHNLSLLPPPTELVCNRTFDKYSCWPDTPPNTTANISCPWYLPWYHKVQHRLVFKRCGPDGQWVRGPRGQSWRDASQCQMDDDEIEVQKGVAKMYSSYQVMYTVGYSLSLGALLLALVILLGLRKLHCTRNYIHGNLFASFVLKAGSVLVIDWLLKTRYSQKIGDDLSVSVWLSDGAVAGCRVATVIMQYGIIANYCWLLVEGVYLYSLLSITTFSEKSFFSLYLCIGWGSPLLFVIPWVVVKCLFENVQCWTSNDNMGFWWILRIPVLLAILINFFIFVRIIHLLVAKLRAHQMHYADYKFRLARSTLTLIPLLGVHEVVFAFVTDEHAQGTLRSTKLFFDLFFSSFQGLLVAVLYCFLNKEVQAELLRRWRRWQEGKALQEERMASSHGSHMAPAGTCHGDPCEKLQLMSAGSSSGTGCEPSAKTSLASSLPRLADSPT

SMILES | IC50 (glucagon receptor [1]) [nM] | IC50 (glucagon receptor [2]) [nM]
N#Cc1cc(C(=O)NNC(=O)c2occc2-c2cccc(Oc3ccccc3)c2)ccc1O [Example 2, 3-(3-phenoxyphenyl)-2-furancarboxylic acid 2-(3-cyano-4-hydroxybenzoyl)hydrazide] | 140 | 330
N#Cc1cc(C(=O)NNC(=O)c2occc2-c2ccccc2Cc2ccccc2)ccc1O [Example 8, 3-(2-benzylphenyl)-2-furancarboxylic acid 2-(3-cyano-4-hydroxybenzoyl)hydrazide] | 310 | 170
CC(C)Oc1ccccc1-c1ccoc1C(=O)NNC(=O)c1ccc(O)c(C#N)c1 [Example 10, 3-(2-isopropoxyphenyl)-2-furancarboxylic acid 2-(3-cyano-4-hydroxybenzoyl)hydrazide] | 230 | 180
CCCOc1ccccc1-c1ccoc1C(=O)NNC(=O)c1ccc(O)c(C#N)c1 [Example 11, 3-(2-propoxyphenyl)-2-furancarboxylic acid 2-(3-cyano-4-hydroxybenzoyl)hydrazide] | 450 | 140
N#Cc1cc(C(=O)NNC(=O)c2occc2-c2ccccc2OCCc2ccccc2)ccc1O [Example 12, 3-(2-phenethyloxyphenyl)-2-furancarboxylic acid 2-(3-cyano-4-hydroxybenzoyl)hydrazide] | 170 | 85
N#Cc1cc(C(=O)NNC(=O)c2occc2-c2ccccc2Oc2ccccc2)ccc1O [Example 13, 3-(2-phenoxyphenyl)-2-furancarboxylic acid 2-(3-cyano-4-hydroxybenzoyl)hydrazide] | 180 | 190
Cc1cc(C)c(C)c(COc2ccc(-c3ccoc3C(=O)NNC(=O)c3ccc(O)c(C#N)c3)cc2)c1C [Example 15, 3-[4-(2,3,5,6-tetramethylbenzyloxy)phenyl]-2-furancarboxylic acid 2-(3-cyano-4-hydroxybenzoyl)hydrazide] | 170 | 27
N#Cc1cc(C(=O)NNC(=O)c2occc2-c2ccc(Oc3ccccc3)cc2)ccc1O [Example 16, 3-(4-phenoxyphenyl)-2-furancarboxylic acid 2-(3-cyano-4-hydroxybenzoyl)hydrazide] | 180 | 87
N#Cc1cc(C(=O)NNC(=O)c2occc2-c2ccc(OCc3ccccc3)cc2)ccc1O [Example 17, 3-(4-benzyloxyphenyl)-2-furancarboxylic acid 2-(3-cyano-4-hydroxybenzoyl)hydrazide] | 160 | 99
O=C(NNC(=O)c1occ(-c2ccccc2)c1-c1ccccc1)c1ccc(O)c(C(F)(F)F)c1 [Example 43, 3,4-diphenyl-2-furancarboxylic acid 2-(4-hydroxy-3-trifluoromethylbenzoyl)hydrazide] | 390 | 160
N#Cc1cc(C(=O)NNC(=O)c2occ(COC(=O)Nc3ccccc3)c2-c2ccccc2)ccc1O [Example 53, 4-(phenylaminocarbonyloxymethyl)-3-phenyl-2-furancarboxylic acid 2-(3-cyano-4-hydroxybenzoyl)hydrazide] | 240 | 75
N#Cc1cc(C(=O)NNC(=O)c2occ(COC(=O)NCCc3ccccc3)c2-c2ccccc2)ccc1O [Example 54, 4-(Phenethylaminocarbonyloxymethyl)-3-phenyl-2-furancarboxylic acid 2-(3-cyano-4-hydroxybenzoyl)hydrazide] | 380 | 150
N#Cc1cc(C(=O)NNC(=O)c2occ(COCc3ccccc3)c2-c2ccccc2)ccc1O [Example 56, 4-Benzyloxymethyl-3-phenyl-2-furancarboxylic acid 2-(3-cyano-4-hydroxybenzoyl)hydrazide] | 220 | 150
N#Cc1cc(C(=O)NNC(=O)c2occc2-c2cccs2)ccc1O [Example 60, 3-(2-thienyl)-2-furancarboxylic acid 2-(3-cyano-4-hydroxybenzoyl)hydrazide] | 160 | 120
N#Cc1cc(C(=O)NNC(=O)c2occc2-c2ccccc2)ccc1O [Example 61, 3-phenyl-2-furancarboxylic acid 2-(3-cyano-4-hydroxybenzoyl)hydrazide] | 200 | 58
N#Cc1cc(C(=O)NNC(=O)c2occc2-c2cccc(OCC(O)c3ccccc3)c2)ccc1O (centres unmarked) [Example 108, 3-[3-(2-Hydroxy-2-phenylethoxy)phenyl]-2-furancarboxylic acid 2-(3-cyano-4-hydroxybenzoyl)hydrazide] | 310 | 110

The next molecules have a lower IC50 (glucagon receptor [1]) than those just listed; values first:

IC50 (glucagon receptor [1]) [nM] | IC50 (glucagon receptor [2]) [nM] | SMILES
130 | 28 | N#Cc1cc(C(=O)NNC(=O)c2occc2-c2cccc(OCCc3ccccc3)c2)ccc1O [Example 4, 3-(3-phenethyloxyphenyl)-2-furancarboxylic acid 2-(3-cyano-4-hydroxybenzoyl)hydrazide]
130 | 200 | N#Cc1cc(C(=O)NNC(=O)c2occc2-c2ccccc2OCc2ccccc2)ccc1O [Example 5, 3-(2-benzyloxyphenyl)-2-furancarboxylic acid 2-(3-cyano-4-hydroxybenzoyl)hydrazide]
120 | 41 | N#Cc1cc(C(=O)NNC(=O)c2occ(-c3ccccc3)c2-c2ccccc2)ccc1O [Example 18, 3,4-diphenyl-2-furancarboxylic acid 2-(3-cyano-4-hydroxybenzoyl)hydrazide]
99 | 21 | Cc1cc(C)c(C)c(COc2cccc(-c3ccoc3C(=O)NNC(=O)c3ccc(O)c(C#N)c3)c2)c1C [Example 1, 3-[3-(2,3,5,6-tetramethylbenzyloxy)phenyl]-2-furancarboxylic acid 2-(3-cyano-4-hydroxybenzoyl)hydrazide]
97 | 86 | O=C(NNC(=O)c1occ(-c2ccccc2)c1-c1ccccc1)c1ccc(O)c([N+](=O)[O-])c1 [Example 19, 3,4-diphenyl-2-furancarboxylic acid 2-(4-hydroxy-3-nitrobenzoyl)hydrazide]
93 | 95 | N#Cc1cc(C(=O)NNC(=O)c2occc2-c2cccc(OCc3ccncc3)c2)ccc1O [Example 102, 3-[3-(4-pyridylmethyloxy)phenyl]-2-furancarboxylic acid 2-(3-cyano-4-hydroxybenzoyl)hydrazide]
84 | 35 | N#Cc1cc(C(=O)NNC(=O)c2occ(C=CCCc3ccccc3)c2-c2ccccc2)ccc1O [Example 59, 3-Phenyl-4-(4-phenyl-1-butenyl)-2-furancarboxylic acid 2-(3-cyano-4-hydroxybenzoyl)hydrazide]
80 | 54 | N#Cc1cc(C(=O)NNC(=O)c2occ(-c3cccc(OCc4ccccc4)c3)c2-c2cccc(OCc3ccccc3)c2)ccc1O [Example 115, 3,4-bis(3-benzyloxyphenyl)-2-furancarboxylic acid 2-(3-cyano-4-hydroxybenzoyl)hydrazide]
75 | 210 | Cc1cc(C)c(C)c(COc2ccccc2-c2ccoc2C(=O)NNC(=O)c2ccc(O)c(C#N)c2)c1C [Example 9, 3-[2-(2,3,5,6-tetramethylbenzyloxy)phenyl]-2-furancarboxylic acid 2-(3-cyano-4-hydroxybenzoyl)hydrazide]
52 | 30 | N#Cc1cc(C(=O)NNC(=O)c2occc2-c2cccc(OCc3ccccc3)c2)ccc1O [Example 3, 3-(3-benzyloxyphenyl)-2-furancarboxylic acid 2-(3-cyano-4-hydroxybenzoyl)hydrazide]
28 | 33 | O=C(NNC(=O)c1occc1-c1cccc(OCc2ccccc2)c1)c1ccc(O)c([N+](=O)[O-])c1 [Example 101, 3-(3-benzyloxyphenyl)-2-furancarboxylic acid 2-(4-hydroxy-3-nitrobenzoyl)hydrazide]
24 | 9.2 | Cc1cc(C)c(C)c(COc2cccc(-c3ccoc3C(=O)NNC(=O)c3ccc(O)c([N+](=O)[O-])c3)c2)c1C [Example 20, 3-[3-(2,3,5,6-tetramethylbenzyloxy)phenyl]-2-furancarboxylic acid 2-(4-hydroxy-3-nitrobenzoyl)hydrazide]
13 | 3.4 | Cc1cc(C)c(C)c(COc2cccc(-c3coc(C(=O)NNC(=O)c4ccc(O)c(C#N)c4)c3-c3ccccc3)c2)c1C [Example 99, 3-phenyl-4-[3-(2,3,5,6-tetramethylbenzyloxy)phenyl]-2-furancarboxylic acid 2-(3-cyano-4-hydroxybenzoyl)hydrazide]
9.1 | 5.8 | Cc1cc(C)c(C)c(COc2cccc(-c3c(-c4ccccc4)coc3C(=O)NNC(=O)c3ccc(O)c([N+](=O)[O-])c3)c2)c1C [Example 100, 4-phenyl-3-[3-(2,3,5,6-tetramethylbenzyloxy)phenyl]-2-furancarboxylic acid 2-(4-hydroxy-3-nitrobenzoyl)hydrazide]
4 | 1.5 | Cc1cc(C)c(C)c(COc2cccc(-c3c(-c4ccccc4)coc3C(=O)NNC(=O)c3ccc(O)c(C#N)c3)c2)c1C [Example 98, 4-phenyl-3-[3-(2,3,5,6-tetramethylbenzyloxy)phenyl]-2-furancarboxylic acid 2-(3-cyano-4-hydroxybenzoyl)hydrazide]
